From PubChem BioAssay (NCI)
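Each compound was tested at five concentrations against cells in 96-well plates for 48 hours. At the GI50, growth is halved. At the TGI there is no net growth.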

Columns and labels:
Assay in all cases: inhibition of tumour cell growth, NCI panel, 48 h
[1] = test system: HL-60(TB) leukemia
[2] = test system: HT29 colon
[3] = test system: K-562 leukemia
[4] = test system: M14 melanoma
[5] = test system: NCI-H226 lung
[6] = test system: NCI-H460 lung
[7] = test system: SK-MEL-5 melanoma
[8] = test system: UACC-62 melanoma
[9] = test system: DU-145 prostate
[10] = test system: HS 578T breast

Compound	TGI [1]	TGI [2]	TGI [3]	TGI [4]	TGI [5]	TGI [6]	TGI [7]	TGI [8]	GI50 [3]	GI50 [9]	TGI [9]	GI50 [1]	GI50 [2]	GI50 [4]	GI50 [5]	GI50 [6]	GI50 [7]	GI50 [8]	GI50 [10]	TGI [10]
CCC1(c2ccncc2)CCC(=O)NC1=O (stereo not drawn)	> 100 µM	> 100 µM	> 100 µM	> 100 µM	> 100 µM	> 100 µM	> 100 µM	> 100 µM	–	–	–	–	–	–	–	–	–	–	–	–
O=C(CN1C(=O)c2ccccc2C1=O)OC1C=CCCC1 (stereo not drawn)	> 100 µM	–	> 100 µM	> 100 µM	> 100 µM	> 100 µM	> 100 µM	> 100 µM	–	–	–	–	–	–	–	–	–	–	–	–
CCCCCCCCCCSS(=O)(=O)c1ccc(C)cc1	11.6 µM	23.9 µM	46.8 µM	25 µM	37.3 µM	23.9 µM	17.2 µM	16.1 µM	–	–	–	–	–	–	–	–	–	–	–	–
Cc1ccc(S(=O)(=O)NC(C)C(=O)O)cc1 (stereo not drawn)	> 100 µM	> 100 µM	> 100 µM	> 100 µM	> 100 µM	> 100 µM	> 100 µM	> 100 µM	> 100 µM	–	–	–	–	–	–	–	–	–	–	–
CN1NC(c2ccccc2)=C(C#N)C(=O)CC1c1ccccc1Cl (stereo not drawn)	> 100 µM	> 100 µM	–	> 100 µM	> 100 µM	> 100 µM	> 100 µM	–	–	–	–	–	–	–	–	–	–	–	–	–
O=C(O)c1cc2c3c(c1)[C@H]1C=CC[C@H]1CN3CC1CC=CC21 (stereo partly drawn)	> 100 µM	> 100 µM	> 100 µM	> 100 µM	> 100 µM	> 100 µM	> 100 µM	> 100 µM	–	–	–	–	–	–	–	–	–	–	–	–
c1ccc(CN2CCC3(CC2)ONC2=NCCN23)cc1	> 100 µM	> 100 µM	> 100 µM	> 100 µM	> 100 µM	> 100 µM	> 100 µM	> 100 µM	42.8 µM	> 100 µM	> 100 µM	35.4 µM	61.4 µM	> 100 µM	86.8 µM	86.5 µM	72 µM	70.8 µM	–	–
C#Cc1cccc(N2C(=O)CC(=P(c3ccccc3)(c3ccccc3)c3ccccc3)C2=O)c1	38.2 µM	> 100 µM	> 100 µM	> 100 µM	> 100 µM	> 100 µM	83.7 µM	> 100 µM	–	–	–	–	–	–	–	–	–	–	–	–
CC[O+]=c1cccc2ssnc1-2	> 100 µM	> 100 µM	> 100 µM	> 100 µM	> 100 µM	> 100 µM	> 100 µM	> 100 µM	–	–	–	–	–	–	–	–	–	–	–	–
COc1ncnc2c1ncn2C/C(Br)=C(\Br)CCl	6.32 µM	3.71 µM	10.9 µM	4.14 µM	9.38 µM	–	5.59 µM	12 µM	3.29 µM	5.31 µM	18.2 µM	2.03 µM	1.63 µM	1.82 µM	2.82 µM	–	2.19 µM	2.65 µM	–	–
COc1ccc2c3c([nH]c2c1[N+](=O)[O-])C(C)N(C(=O)/C=C/c1ccccc1)CC3 (stereo not drawn)	7.01 µM	> 100 µM	> 100 µM	> 100 µM	41.3 µM	> 100 µM	–	9.06 µM	–	–	–	–	–	–	–	–	–	–	–	–
COc1cc2c3c(n(CCCn4cccn4)c(=O)c2cc1OC)-c1cc2c(cc1C3=O)OCO2	–	25.4 µM	> 100 µM	5.07 µM	9.51 µM	13.3 µM	5.24 µM	1.78 µM	3.51 µM	0.437 µM	5.57 µM	–	2.56 µM	0.461 µM	0.922 µM	0.52 µM	1.48 µM	0.359 µM	22.7 µM	> 90.7 µM
O=C(Oc1ccccc1Cl)c1cccnc1Nc1ccnc(C(F)(F)F)c1	–	71.5 µM	27.6 µM	–	8.07 µM	> 100 µM	27 µM	18.7 µM	4.61 µM	15.7 µM	30.4 µM	–	25.3 µM	–	2.61 µM	38.4 µM	14 µM	6.13 µM	17.3 µM	48.9 µM
CCCC(=O)C(CC)/C(CCC(=O)N(Cc1ccccc1)Cc1ccccc1)=N/NC(=O)C[N+](C)(C)C (stereo not drawn)	> 100 µM	> 100 µM	> 100 µM	> 100 µM	> 100 µM	> 100 µM	> 100 µM	–	–	–	–	–	–	–	–	–	–	–	–	–
COc1ccc(/C=C2/CCOC2=O)cc1	> 100 µM	> 100 µM	> 100 µM	> 100 µM	> 100 µM	> 100 µM	> 100 µM	> 100 µM	> 100 µM	> 100 µM	> 100 µM	> 100 µM	> 100 µM	> 100 µM	> 100 µM	> 100 µM	> 100 µM	> 100 µM	–	–
C=CC1(C)/C(=N\O)C(C)(CC)C(=O)N1O (stereo not drawn)	> 100 µM	> 100 µM	> 100 µM	> 100 µM	–	> 100 µM	> 100 µM	> 100 µM	–	–	–	–	–	–	–	–	–	–	–	–
CC(C)c1cccc2sc(NC(=O)C(=O)CC(=O)c3ccc(F)cc3)nc12	> 100 µM	> 100 µM	> 100 µM	> 100 µM	> 100 µM	> 100 µM	> 100 µM	> 100 µM	–	–	–	–	–	–	–	–	–	–	–	–
C/C(=C\c1ccccc1)C(O)S(=O)(=O)O (stereo not drawn)	> 100 µM	> 100 µM	> 100 µM	> 100 µM	> 100 µM	> 100 µM	> 100 µM	> 100 µM	–	–	–	–	–	–	–	–	–	–	–	–
COc1cccc(C(=O)O)c1Cc1cccc2ccccc12	> 100 µM	> 100 µM	> 100 µM	> 100 µM	> 100 µM	> 100 µM	> 100 µM	> 100 µM	–	–	–	–	–	–	–	–	–	–	–	–
COc1cc(C(C)c2cc3c(cc2OCCOCCOc2cc4c(cc2C(C)c2cc(OC)c(OC)c(OC)c2)OCO4)OCO3)cc(OC)c1OC (stereo not drawn)	> 100 µM	> 100 µM	> 100 µM	> 100 µM	> 10 µM	> 100 µM	> 100 µM	> 100 µM	> 10 µM	–	–	> 100 µM	> 100 µM	> 100 µM	–	> 100 µM	> 10 µM	> 100 µM	–	–
